Data as given in patent publication US8110543B2, “Anti-invasive and anti-angiogenic compositions” (Angstrom Pharmaceuticals, Inc., priority 1997, dated 2012).

Key:
Mat B-III tumors = assay: Rat syngeneic Mat B-III breast cancer model; type: in vivo; conditions: comparative analysis of related peptides
Method: The effects of the compounds are tested on tumor progression in a rat syngeneic model of breast cancer (Xing and Rabbani, 1996). Mat BIII rat breast tumor cells (1×10^6 cells in PBS, 0.1 mL per rat) are inoculated into the mammary fat pads of female Fisher rats. The test compound is dissolved in PBS (200 mM stock), sterile filtered and dispensed in vivo at a dose of up to about 100 mg/kg/day) using a 14-day Alza osmotic mini-pump implanted intraperitoneally at the time of inoculation. Control animals receive vehicle (PBS) alone. Animals are euthanized at day 14 and examined for metastasis in the spleen, lungs, liver, kidney and lymph nodes. In addition, the primary tumors are excised, quantitated, and prepared for immunohistochemistry.
The rat syngeneic breast cancer system (Xing and Rabbani, 1996) employs Mat BIIIrat breast cancer cells. When Mat B-III cells (1×10^6 cells) are inoculated into the mammary fat pad of female Fisher rats, they form large tumors which metastasize to regional lymph nodes (LNs) and other distal sites within 14-20 days.
Å6 was initially delivered prophylactically (infusion starting on the day of tumor inoculation) using an Alzet mini-pump that delivered 75 mg/kg/day. […] Metastasis was quantitated by counting the number of macroscopic foci without regard for their size.
Estrogen receptor-positive Mat B-III tumors were used to test combination treatment with Å6 (75 mg/kg/day) and TAM (3 mg/kg/day). In contrast to previous studies, the Mat B-III tumors (inoculated in the mammary fat pad) were staged to 40-50 mm^3 prior to the initiation of treatment. Treatment was continued for 8 days during which time primary tumor growth was measured using calipers (FIG. 14).

PC-3 cells = assay: PC-3 CAT metastasis model; type: in vivo, mice; conditions: minipump 100 mg/kg/day, 14 or 21 days
Method: The compounds of this invention are also tested for inhibition of late metastasis using an experimental metastasis model (Crowley et al., 1993). Late metastasis involves the steps of attachment and extravasation of tumor cells, local invasion, seeding, proliferation and angiogenesis.
Human prostatic carcinoma cells (PC-3) transfected with a reporter gene, preferably the green fluorescent protein (GFP) gene, but as an alternative with a gene encoding the enzymes chioramphenicol acetyl-transferase (CAT), luciferase or LacZ. This permits utilization of either of these markers (fluorescence detection of GFP or histochemical colorimetric detection of enzymatic activity) for following the fate of these cells. Cells are injected, preferably iv, and metastases identified after about 14 days, particularly in the lungs but also in regional lymph nodes, femurs and brain. This mimics the organ tropism of naturally occurring metastases of prostate cancer. For example, GFP-expressing PC-3 cells (1×10^6 cells per mouse) are injected iv into the tail veins of nude (nu/nu) mice. Animals are also implanted with mini-pumps (sub-dermally on the back) dispensing either the test compound (at least about 100 mg/kg/day) or vehicle. The animals are euthanized after 14 days and their organs prepared for histological examination. Single metastatic cells and foci are visualized and quantitated by fluorescence microscopy or light microscopic histochemistry or by grinding the tissue and quantitative colorimetric assay of the detectable label.
(§1) In addition to Å6, other related peptide compounds described above are tested for efficacy in vivo in the 3LL model (as provided above) as well as the PC-3 model. PC-3 cells transfected with the gene encoding the enzyme chloramphenicol acetyl-transferase (CAT) are inoculated into mice i.v. at doses of 1×10^6 cells per mouse. These mice are implanted with a minipump, as above, which dispenses 100 mg/kg/day of the peptide or vehicle over a period of 14 or 21 days. At termination of treatment, the animals are euthanized and the tumor marker probe is assayed in regional lymph nodes, femurs, lungs, and brain.

3LL cells = assay: Tumor angiogenesis (microvessel density) in 3LL model; type: in vivo, Mice; conditions: 100-250 mg/kg/day; compared to controls
Method: Angiogenesis is measured by determining microvessel density using immunostaining for CD31 (also known as platelet-endothelial cell adhesion molecule or PECAM). Results are reported as the average microvessel density of 5 fields each from 5 different sections (Penfold et al., 1996). Typically, the whole tumor is excised, sectioned and the sections examined histologically for microvessel density using appropriate stains or labels for other markers.
Angiogenesis induced by tumor growth and metastasis in vivo is examined in the models systems described above. Mice injected with 3LL cells are treated either with peptide or with vehicle and are sacrificed at various time points. Angiogenesis is assessed by determining microvessel density (MVD) using an antibody specific for microvascular endothelium or other markers of growing blood vessels, such as PECAM (CD31). Such an antibody is employed in conventional immunohistological methods to immunostain tissue sections as described by Penfold et al., supra. A large number of such antibodies is commercially available, for example the JC70 mAb. The MVD are correlated with other measures of tumor behavior including lymph node status and primary tumor size and rate of growth. In humans as reported by Penfold et al., supra, tumor MVD correlates with lymph node metastasis and is independent of tumor size, growth rate or type of histological differentiation.
The compounds are given i.v., i.p., or by osmotic minipump Typical dosages are 100-250 mg/kg/day. At various time points, two animals are sacrificed, and the tumor tissue and surrounding tissue is prepared for histological examination. Results are reported as the average microvessel density of 5 fields each from 5 different sections. The following seven compounds are tested: Ac-[…]-Am (SEQ ID NO:2), Ac-[…]-Am (SEQ ID NO: 6) (disubstitution variant at positions 3 and 4), Ac-[…]-Am (SEQ ID NO: 7) (disubstitution variant at positions 7 and 8), Ac-[…]-Am (SEQ ID NO: 8) (substitution variant at position 1), Ac-PSSPPEE-Am (SEQ ID NO: 4) (deletion variant, position 1 of SEQ ID NO:2 deleted), Ac-KPSSPPE-Am (SEQ ID NO: 5) (deletion variant, position 8 of SEQ ID NO:2 deleted), and Ac-[…]-Am (SEQ ID NO:1).

3LL = 3LL metastasis model, related peptides; design: species or system mice; conditions: mouse, in vivo
Excerpt: This model has been utilized by a number of investigators. See, for example, Gorelik, E. et al., J. Nat'l. Canc. Inst. 65:1257-1264 (1980); Gorelik, E. et al., Rec. Results Canc Res. 75:20-28 (1980); Isakov, N. et al., Invasion Metas. 2:12-32 (1982); Talmadge J. E. et al., J. Nat'l. Canc. Inst. 69:975-980 (1982); Hilgard, P. et al, Br. J. Cancer 35:78-86 (1977)). Test mice are male C57BL/6 mice, 2-3 months old. Following sc, im, or intra-footpad implantation, this tumor produces metastases, preferentially in the lungs. With some lines of the tumor, the primary tumor exerts anti-metastatic effects and must first be excised before study of the metastatic phase (see also U.S. Pat. No. 5,639,725).
Single-cell suspensions are prepared from solid tumors by treating minced tumor tissue with a solution of 0.3% trypsin. Cells are washed 3 times with PBS (pH 7.4) and suspended in PBS. Viability of the 3LL cells prepared in this way is generally about 95-99% (by trypan blue dye exclusion). Viable tumor cells (3×10^4-5×10^6) suspended in 0.05 ml PBS are injected subcutaneously, either in the dorsal region or into one hind foot pad of C57BL/6 mice. Visible tumors appear after 3-4 days after dorsal sc injection of 10^6 cells. The day of tumor appearance and the diameters of established tumors are measured by caliper every two days.
The treatment is given as one or two doses of peptide or derivative, per week. In another embodiment, the peptide is delivered by osmotic minipump.
Lungs are removed and weighed. Lungs are fixed in Bouin's solution and the number of visible metastases is recorded. The diameters of the metastases are also measured using a binocular stereoscope equipped with a micrometer-containing ocular under 8× magnification. On the basis of the recorded diameters, it is possible to calculate the volume of each metastasis. To determine the total volume of metastases per lung, the mean number of visible metastases is multiplied by the mean volume of metastases. To further determine metastatic growth, it is possible to measure incorporation of ^125IdUrd into lung cells (Thakur, M. L. et al., J. Lab. Clin. Med. 89:217-228 (1977). Ten days following tumor amputation, 25 μg of fluorodeoxyuridine is inoculated into the peritoneums of tumor-bearing (and, if used, tumor-resected mice). After 30 min, mice are given 1 μCi of ^125IdUrd (iododeoxyuridine). One day later, lungs and spleens are removed and weighed, and a degree of ^125IdUrd incorporation is measured using a gamma counter.
as §1

[1] = tested on: human prostate cancer line PC-3; assay: Matrigel invasion assay, PC-3 cells; type: cell-based; conditions: 5 μM (FIG. 1, FIG. 2)
Method: Several peptides were tested for anti-invasive capacity in a Matrigel® invasion assay system as indicated above (Kleinman et al., supra; Parish et al., supra). Several invasive human tumor lines (PC-3, MDA-MB-231) and non-human tumors (3LL, Mat B-III) were examined. The rat breast cancer line Mat B III and the human prostate cancer line PC-3 were initially used.
Tumor cells (5×10^5/mL, in a volume of 200 μL) in serum-free RPMI 1640 medium were added to a disposable transwell invasion chamber coated with Matrigel® (Becton Dickinson, Lincoln Park, N.J.). The invasion chambers were placed in 24-well tissue culture plates filled with serum-free RPMI-1640 and the plates were placed in an atmosphere of 5% CO2 in humidified air at 37° C. for 48-72 hours. The chambers were then removed, inverted, and the cells which had invaded (and now appeared on the bottom face of the invasion chamber) were fixed and stained using Diff-Quick® (Scientific Products). Cells were counted in 10 different fields on each filter and an average obtained.

Row | Substance | number of metastases in the spleen, lungs, liver, kidney and lymph nodes (Mat B-III tumors) | size of the primary tumor (Mat B-III tumors) | metastasis, PC-3 model (PC-3 cells) | number of microvessels in the region of the primary tumor (3LL cells) | metastasis, 3LL model (3LL) | in vitro invasion of PC-3 cells in a Matrigel system [1]
1 | Ac-KPSSPPEELK-Am: capped counterpart of KPSSPPEELK (SEQ ID NO: 1) (Ac-KPSSPPEELK-NH2) [reference compound] | fail to cause a significant change | fail to cause a significant change | no reduction | no significant effect | no reduction | 
2 | Ac-Lys-Pro-Ser-Ser-Pro-Pro-Glu-Am (Ac-KPSSPPE-NH2) [Ac-KPSSPPE-Am] | fail to cause a significant change | fail to cause a significant change | no reduction | no significant effect | no reduction | 
3 | Ac-Pro-Ser-Ser-Pro-Pro-Glu-Glu-Am (Ac-PSSPPEE-NH2) [Ac-PSSPPEE-Am] | fail to cause a significant change | fail to cause a significant change | no reduction | no significant effect | no reduction | 
4 | Ac-KPSSPPDD-Am: disubstitution variant at positions 7 and 8 (SEQ ID NO: 7) (Ac-KPSSPPDD-NH2) | significant reduction | significant reduction | markedly inhibited | significant reduction | markedly inhibited | 
5 | Ac-RPSSPPEE-Am: substitution variant at position 1 (SEQ ID NO: 8) (Ac-RPSSPPEE-NH2) | significant reduction | significant reduction | markedly inhibited | significant reduction | markedly inhibited | 
6 | Ac-KPTTPPEE-Am: disubstitution variant at positions 3 and 4 (SEQ ID NO: 6) (Ac-KPTTPPEE-NH2) | significant reduction | significant reduction | markedly inhibited | significant reduction | markedly inhibited | 
7 | KPSSPPEELK [Lys-Pro-Ser-Ser-Pro-Pro-Glu-Glu-Leu-Lys, reference compound] |  |  |  |  |  | inactive
